Reference: patent US6358885B1, “Substituted phenylheterocyclic herbicides” (Mississippi State University, priority 1992, dated 2002)

Tests used:
cheatgrass = experiment: Test B preemergence/postemergence greenhouse plant response rating 0 to 10; assay type: in vivo, Bromus secalinus; settings: 0 to 10 scale
How it was run: (§1)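 Both application timings were run together: seeds got compound preemergence, and established seedlings (two to eighteen cm) got it postemergence. Non-phytotoxic solvent carried the chemical. Ratings are visual, versus controls, at twelve to sixteen days.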

chickweed [1] = experiment: as above; assay type: in vivo, Stellaria media; settings: 0 to 10 scale
How it was run: as §1

corn = experiment: as above; assay type: in vivo, Zea mays; settings: 0 to 10 scale
How it was run: as §1

giant foxtail = experiment: as above; assay type: in vivo, Setaria faberii; settings: 0 to 10 scale
How it was run: as §1

sorghum = experiment: as above; assay type: in vivo, Sorghum bicolor; settings: 0 to 10 scale
How it was run: as §1

wild buckwheat [2] = experiment: as above; assay type: in vivo, Polygonum convolvulus; settings: 0 to 10 scale
How it was run: as §1

wild oat = experiment: as above; assay type: in vivo, Avena fatua; settings: 0 to 10 scale
How it was run: as §1

barley = experiment: Test C preemergence/postemergence greenhouse plant response rating 0 to 100; assay type: in vivo, Hordeum vulgare; settings: POSTEMERGENCE; for Plant response rating Barley Igri: 0 to 100 scale
How it was run: (§2)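 Compounds in non-phytotoxic solvent went onto sandy loam before emergence (seeded one day earlier) or onto plants at the one-to-four leaf stage. Duck salad was treated via flood water (~2.5 cm, maintained) over silt loam.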

chickweed [3] = experiment: as above; assay type: in vivo, Stellaria media; settings: POSTEMERGENCE; for Plant response rating, Chickweed: 0 to 100 scale
How it was run: as §2

cotton = experiment: as above; assay type: in vivo, Gossypium hirsutum; settings: POSTEMERGENCE; for Plant response rating, Cotton: 0 to 100 scale
How it was run: as §2

downy brome = experiment: as above; assay type: in vivo, Bromus tectorum; settings: POSTEMERGENCE; for Plant response rating Downy Brome: 0 to 100 scale
How it was run: as §2

lambsquarters = experiment: as above; assay type: in vivo, Chenopodium album; settings: POSTEMERGENCE; for Plant response rating Lambsquarters: 0 to 100 scale
How it was run: as §2

ryegrass = experiment: as above; assay type: in vivo, Lolium multiflorum; settings: POSTEMERGENCE; for Plant response rating Ryegrass: 0 to 100 scale
How it was run: as §2

soybean = experiment: as above; assay type: in vivo, Glycine max; settings: POSTEMERGENCE; for Plant response rating, Soybean: 0 to 100 scale
How it was run: as §2

sugar beet = experiment: as above; assay type: in vivo, Beta vulgaris; settings: POSTEMERGENCE; for Plant response rating, Sugar beet: 0 to 100 scale
How it was run: as §2

velvetleaf = experiment: as above; assay type: in vivo, Abutilon theophrasti; settings: POSTEMERGENCE; for Plant response rating, Velvetleaf: 0 to 100 scale
How it was run: as §2

wild buckwheat [4] = experiment: as above; assay type: in vivo, Polygonum convolvulus; settings: POSTEMERGENCE; for Plant response rating, Wild buckwheat: 0 to 100 scale
How it was run: as §2

duck salad = experiment: Test C flood test plant response rating 0 to 100; assay type: in vivo, Heteranthera limosa; settings: for Plant response rating Duck salad: flood test species listed under POSTEMERGENCE, 0 to 100 scale
How it was run: as §2

COC(=O)c1cc(-c2nn3c(c2Cl)CCCC3)c(F)cc1Cl [Compound 43]
Plant response rating, Cheatgrass (cheatgrass; POSTEMERGENCE, Rate 50 g/ha): 6
Plant response rating, Cheatgrass (cheatgrass; POSTEMERGENCE, Rate 200 g/ha): 9
Plant response rating, Cheatgrass (cheatgrass; PREEMERGENCE, Rate 50 g/ha): 2
Plant response rating, Cheatgrass (cheatgrass; Rate 200 g/ha, PREEMERGENCE): 3
Plant response rating, Chickweed (chickweed [1]; POSTEMERGENCE, Rate 200 g/ha): 10
Plant response rating, Chickweed (chickweed [1]; PREEMERGENCE, Rate 50 g/ha): 0
Plant response rating, Chickweed (chickweed [1]; Rate 200 g/ha, PREEMERGENCE): 10
Plant response rating, Corn (corn; POSTEMERGENCE, Rate 50 g/ha): 8
Plant response rating, Corn (corn; POSTEMERGENCE, Rate 200 g/ha): 10
Plant response rating, Corn (corn; PREEMERGENCE, Rate 50 g/ha): 0
Plant response rating, Corn (corn; Rate 200 g/ha, PREEMERGENCE): 0
Plant response rating, Giant foxtail (giant foxtail; POSTEMERGENCE, Rate 50 g/ha): 5
Plant response rating, Giant foxtail (giant foxtail; PREEMERGENCE, Rate 50 g/ha): 0
Plant response rating, Giant foxtail (giant foxtail; Rate 200 g/ha, POSTEMERGENCE): 6
Plant response rating, Giant foxtail (giant foxtail; Rate 200 g/ha, PREEMERGENCE): 0
Plant response rating, Sorghum (sorghum; POSTEMERGENCE, Rate 50 g/ha): 5
Plant response rating, Sorghum (sorghum; PREEMERGENCE, Rate 50 g/ha): 0
Plant response rating, Sorghum (sorghum; Rate 200 g/ha, POSTEMERGENCE): 8
Plant response rating, Sorghum (sorghum; Rate 200 g/ha, PREEMERGENCE): 2
Plant response rating, Wild buckwheat (wild buckwheat [2]; POSTEMERGENCE, Rate 50 g/ha): 10
Plant response rating, Wild buckwheat (wild buckwheat [2]; PREEMERGENCE, Rate 50 g/ha): 8
Plant response rating, Wild buckwheat (wild buckwheat [2]; Rate 200 g/ha, POSTEMERGENCE): 10
Plant response rating, Wild buckwheat (wild buckwheat [2]; Rate 200 g/ha, PREEMERGENCE): 10
Plant response rating, Wild oat (wild oat; POSTEMERGENCE, Rate 50 g/ha): 5
Plant response rating, Wild oat (wild oat; PREEMERGENCE, Rate 50 g/ha): 2
Plant response rating, Wild oat (wild oat; Rate 200 g/ha, POSTEMERGENCE): 7
Plant response rating Barley Igri (barley; 62 g/ha): 50
Plant response rating Barley Igri (barley; 250 g/ha): 60
Plant response rating (0 to 100), Barley Igri (barley; Rate 4 g/ha): 30
Plant response rating (0 to 100), Barley Igri (barley; Rate 16 g/ha): 40
Plant response rating, Chickweed (chickweed [3]; 62 g/ha): 90
Plant response rating, Chickweed (chickweed [3]; 250 g/ha): 100
Plant response rating (0 to 100), Chickweed (chickweed [3]; Rate 4 g/ha): 60
Plant response rating (0 to 100), Chickweed (chickweed [3]; Rate 16 g/ha): 80
Plant response rating, Cotton (cotton; 62 g/ha): 100
Plant response rating, Cotton (cotton; 250 g/ha): 100
Plant response rating (0 to 100), Cotton (cotton; Rate 4 g/ha): 90
Plant response rating (0 to 100), Cotton (cotton; Rate 16 g/ha): 90
Plant response rating Downy Brome (downy brome; 62 g/ha): 50
Plant response rating Downy Brome (downy brome; 250 g/ha): 80
Plant response rating (0 to 100), Downy Brome (downy brome; Rate 4 g/ha): 30
Plant response rating (0 to 100), Downy Brome (downy brome; Rate 16 g/ha): 40
Plant response rating Lambsquarters (lambsquarters; 62 g/ha): 100
Plant response rating Lambsquarters (lambsquarters; 250 g/ha): 100
Plant response rating (0 to 100), Lambsquarters (lambsquarters; Rate 4 g/ha): 90
Plant response rating (0 to 100), Lambsquarters (lambsquarters; Rate 16 g/ha): 100
Plant response rating Ryegrass (ryegrass; 62 g/ha): 50
Plant response rating Ryegrass (ryegrass; 250 g/ha): 85
Plant response rating (0 to 100), Ryegrass (ryegrass; Rate 4 g/ha): 30
Plant response rating (0 to 100), Ryegrass (ryegrass; Rate 16 g/ha): 40
Plant response rating, Soybean (soybean; 62 g/ha): 70
Plant response rating, Soybean (soybean; 250 g/ha): 90
Plant response rating (0 to 100), Soybean (soybean; Rate 4 g/ha): 40
Plant response rating (0 to 100), Soybean (soybean; Rate 16 g/ha): 50
Plant response rating, Sugar beet (sugar beet; 62 g/ha): 60
Plant response rating, Sugar beet (sugar beet; 250 g/ha): 80
Plant response rating (0 to 100), Sugar beet (sugar beet; Rate 4 g/ha): 30
Plant response rating (0 to 100), Sugar beet (sugar beet; Rate 16 g/ha): 40
Plant response rating, Velvetleaf (velvetleaf; 62 g/ha): 100
Plant response rating, Velvetleaf (velvetleaf; 250 g/ha): 100
Plant response rating (0 to 100), Velvetleaf (velvetleaf; Rate 4 g/ha): 50
Plant response rating (0 to 100), Velvetleaf (velvetleaf; Rate 16 g/ha): 100
Plant response rating, Wild buckwheat (wild buckwheat [4]; 62 g/ha): 100
Plant response rating, Wild buckwheat (wild buckwheat [4]; 250 g/ha): 100
Plant response rating (0 to 100), Wild buckwheat (wild buckwheat [4]; Rate 4 g/ha): 60
Plant response rating (0 to 100), Wild buckwheat (wild buckwheat [4]; Rate 16 g/ha): 100
Plant response rating (0 to 100), Duck salad (duck salad; POSTEMERGENCE section, flood test, Rate 4 g/ha): 0
Plant response rating (0 to 100), Duck salad (duck salad; Rate 16 g/ha, under POSTEMERGENCE head (flood test species)): 0
Plant response rating Duck salad (duck salad; 62 g/ha): 25
Plant response rating Duck salad (duck salad; 250 g/ha): 45
